Like-named read-outs stand apart in the source and are kept apart here.
What was measured:
Type in all cases: cell-based, human
[1] = tested on: HeLa (Cervical cancer cell line); test: Anti-proliferative assay (Cell Titer-Glo), HeLa
[2] = tested on: MCF-7 (Breast cancer cell line); test: Anti-proliferative assay (Cell Titer-Glo), MCF-7
[3] = tested on: DU-145 (Prostate cancer cell line); test: Anti-proliferative assay (Cell Titer-Glo), DU-145
Protocol: Cell culture & Reagents: All cell lines, used for the anti-proliferative screen, were obtained from American Type Culture Collection (ATCC). HeLa (Cervical cancer cell line), MCF-7 (Breast cancer cell line) and DU-145 (Prostate cancer cell line) were cultured in Dulbecco's modified Eagle's medium (DMEM, GIBCO), containing 10% fetal bovine serum (FBS; Life Technologies), penicillin and streptomycin (10,000 U/mL), at 37° C. and in 5% CO2. Cell Titer-Glo® Luminescent Cell Viability Assay kit (Cat No. G7573) was purchased from Promega to determine the number of viable cells in culture based on quantitation of the ATP present, which signals the presence of metabolically active cells.
Anti-Proliferative assay: For anti-proliferative screening, 2500 cells per well (For HeLa and DU-145 cell lines) and 5000 cells per well (for MCF-7 cell line) numbers of cells were seeded in a white opaque plate and incubated for 24 Hrs in 5% CO2 incubator at 37° C. After 24 Hrs, compound dilutions were prepared as per the required concentrations in cell culture medium (DMEM) and diluted compounds were added and incubated with cells for 72 Hrs at 37° C. in 5% CO2 incubator in the same 96 well-plate. After 72 Hrs, Cell Titer-Glo® reagent vial was reconstituted with 100 mL of Cell Titer Glo buffer and 100 μL of prepared reagent was added to each well. After incubating at room temperature for 30 minutes, luminescence was captured using luminescence plate reader (EnVision® Multilabel Plate Reader from Perkin Elmer). Generated data was exported to the excel file and data was analyzed using Graph Pad Prism to calculate IC50 value of the unknown inhibitor.
Compounds were screened against different cancer cell lines [HeLa, DU-145, MCF-7 and SKOV3] for anti-proliferative activity using luminescence based cell proliferation assay using Promega Glo kit are shown in FIG. 3.

[4] = tested on: SKOV3 (Ovarian cancer cells); test: Anti-proliferative assay, SKOV3
[5] = Table 1, reference compounds, read-out: IC50 DU-145 cells

Row | SMILES | IC50 ([1]; Table 1, reference compounds, read-out: IC50 HeLa cells) [nM] | IC50 ([2]; Table 1, reference compounds, read-out: IC50 MCF-7 cells) [nM] | IC50 [3, 5] [nM] | IC50 ([4]; Table 1, reference compounds, read-out: IC50 SKOV3 cells) [nM] | IC50 ([1]; Homo sapiens, HeLa, Table 1, reference compounds, read-out: IC50 HeLa cells) [nM] | IC50 ([1]; Homo sapiens, HeLa, Table 2, reference compounds section, read-out: HeLa IC50) [nM] | IC50 ([2]; Homo sapiens, MCF7, Table 1, reference compounds, read-out: IC50 MCF-7 cells) [nM] | IC50 ([2]; Homo sapiens, MCF7, Table 2, reference compounds section, read-out: MCF-7 IC50) [nM] | IC50 ([3]; Homo sapiens, DU-145, Table 1, reference compounds, read-out: IC50 DU-145 cells) [nM] | IC50 ([3]; Homo sapiens, DU-145, Table 2, reference compounds section, read-out: DU-145 IC50) [nM] | IC50 ([4]; Homo sapiens, SK-OV-3, Table 1, reference compounds, read-out: IC50 SKOV3 cells) [nM] | IC50 ([4]; Homo sapiens, SK-OV-3, Table 2, reference compounds section, read-out: SKOV3 IC50) [nM]
1 | CC(/C=C/C(=O)NO)=C\[C@@H](C)C(=O)c1ccc(N(C)C)cc1 [TSA, Trichostatin A] | 124 | 153 | 539 | 242 | – | – | – | – | – | – | – | –
2 | COc1ccc(C[C@H](N)C(=O)N[C@H]2[C@@H](O)[C@H](n3cnc4c(N(C)C)ncnc43)O[C@@H]2CO)cc1 [Puromycin] | – | – | – | – | 619 | 387 | 408 | 254 | 967 | 382 | 296 | 296
3 | O=C(CCCCCCC(=O)Nc1ccccc1)NO [SAHA] | – | – | 796 | – | – | – | – | – | – | – | – | –
